What was measured:
UCHL1 = molecular target: T1, UCHL1 (Homo sapiens, UniProt P09936); test: In vitro DUB selectivity panel, ubiquitin substrate cleavage assay; format: biochemical; settings: marginal inhibition
T1 construct: UCHL1 FL (1-223); made in house
T1 sequence (P09936 1-223): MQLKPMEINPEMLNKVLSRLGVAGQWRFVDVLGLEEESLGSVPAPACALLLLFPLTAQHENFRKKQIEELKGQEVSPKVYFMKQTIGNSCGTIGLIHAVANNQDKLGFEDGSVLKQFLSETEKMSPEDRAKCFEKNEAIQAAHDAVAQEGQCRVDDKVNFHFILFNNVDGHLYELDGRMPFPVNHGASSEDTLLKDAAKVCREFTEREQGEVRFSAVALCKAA
Protocol: (§1) After having determined the (1S,2S) configuration as the preferred stereoisomer, we turned our attention to the aromatic ring substituents to further improve the compound potency. Applying the same chemo-enzymatic strategy described above, a panel of aryl substituted trans (1S,2S) cyclopropane compounds 7–10 were generated having a methyl (7–9) or fluorine (10) substituent at different positions on the aromatic ring. The compounds were tested for their OTUB2 inhibitory potency using the assay as described above (Table 1, Figure S1A). […] Since these compounds are all covalent, irreversible inhibitors,[15] the IC50 depends on the incubation time. To get a better estimate of their respective inhibitory capacity, independent of incubation time, we determined the kinact/KI values of compounds 5–10 by pre-mixing the compounds with the substrate before adding OTUB2. […] The in vitro selectivity of LN5P45 for OTUB2 was assessed using a panel containing six DUBs from the OTU family, including its closest family members OTUB1, OTUD1, OTUD2, OTUD3, OTUD6B, and Cezanne, and two DUBs from outside this family, UCHL1 and USP16 (Figure S2, Table S1).
(§2) The assays were performed in “nonbinding surface flat bottom low flange” black 384-well plates (Corning 3820) at room temperature in a buffer containing 50 mM Tris·HCl, 100 mM NaCl, pH 7.6, 2.0 mM cysteine, 1 mg/mL 3-[(3-cholamidopropyl)-dimethylammonio]propanesulfonic acid (CHAPS), and 0.5 mg/mL γ-globulins from bovine blood (BGG). All dispensing steps involving buffered solutions were performed on a Biotek MultiFlowFX dispenser. […] The compounds were dissolved in 10 mM and 1 mM DMSO stock solutions, and appropriate volumes were transferred to the empty plates using a Labcyte Echo acoustic dispenser to obtain a 12-point serial dilution. […] A 3 μL portion of the substrate (UbRhoMP, or K48-linked diUb FRET pair[35] for OTUB1) was added (final concentration 500 nM), and the increase in fluorescence over time was recorded using a BMG Labtech PHERAstar plate reader (excitation 487 nm, emission 535 nm).

USP16 = molecular target: T2, USP16 (Homo sapiens, UniProt Q9Y5T5); test: as above; format: biochemical; settings: marginal inhibition
T2 construct: USP16 FL (22-823); His-tag (N); made in house
T2 sequence (Q9Y5T5 22-823): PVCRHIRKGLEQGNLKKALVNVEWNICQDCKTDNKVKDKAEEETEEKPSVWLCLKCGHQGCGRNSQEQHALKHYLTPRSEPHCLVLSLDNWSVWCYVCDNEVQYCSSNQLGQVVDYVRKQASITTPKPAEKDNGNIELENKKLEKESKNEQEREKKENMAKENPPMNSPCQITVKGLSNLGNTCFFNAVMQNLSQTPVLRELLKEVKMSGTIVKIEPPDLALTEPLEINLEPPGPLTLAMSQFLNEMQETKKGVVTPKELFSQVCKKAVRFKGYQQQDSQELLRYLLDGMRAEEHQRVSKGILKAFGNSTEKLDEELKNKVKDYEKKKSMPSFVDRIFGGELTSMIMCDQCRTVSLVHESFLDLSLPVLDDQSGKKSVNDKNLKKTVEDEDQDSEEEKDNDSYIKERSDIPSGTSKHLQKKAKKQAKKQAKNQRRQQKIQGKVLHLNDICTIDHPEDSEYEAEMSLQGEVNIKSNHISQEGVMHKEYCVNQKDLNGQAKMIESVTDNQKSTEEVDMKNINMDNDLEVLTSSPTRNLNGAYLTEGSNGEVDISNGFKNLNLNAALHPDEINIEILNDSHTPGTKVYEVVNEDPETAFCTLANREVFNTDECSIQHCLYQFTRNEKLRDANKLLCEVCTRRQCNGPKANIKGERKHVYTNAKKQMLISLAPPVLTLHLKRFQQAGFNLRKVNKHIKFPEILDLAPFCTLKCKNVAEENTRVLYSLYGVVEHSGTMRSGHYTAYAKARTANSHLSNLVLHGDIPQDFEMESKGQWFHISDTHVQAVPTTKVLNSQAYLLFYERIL
Protocol: as §1, §2

OTUD3 = molecular target: T3, OTUD3 (Homo sapiens, UniProt Q5T2D3); test: as above; format: biochemical
T3 construct: OTUD3 FL (1-398) GST, cleaved Q5T2D3; GST (cleaved yes); purchased Ubiquigent DUBscan Kit 67-0006-001
T3 sequence (Q5T2D3 1-398): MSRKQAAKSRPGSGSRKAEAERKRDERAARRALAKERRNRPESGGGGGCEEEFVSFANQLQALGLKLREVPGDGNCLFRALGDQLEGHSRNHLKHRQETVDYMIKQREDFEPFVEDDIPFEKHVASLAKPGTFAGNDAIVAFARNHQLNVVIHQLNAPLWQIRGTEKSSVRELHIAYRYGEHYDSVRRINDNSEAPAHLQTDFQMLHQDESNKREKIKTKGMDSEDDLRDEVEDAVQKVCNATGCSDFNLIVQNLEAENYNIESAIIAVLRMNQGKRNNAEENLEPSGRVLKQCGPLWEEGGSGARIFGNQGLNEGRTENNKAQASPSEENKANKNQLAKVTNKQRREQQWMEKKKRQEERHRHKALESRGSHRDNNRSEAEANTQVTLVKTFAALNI
Protocol: as §1, §2

[1] = test system: OTUB1, OTUD1, OTUD2, OTUD3, OTUD6B, Cezanne, UCHL1 and USP16; test: In vitro DUB selectivity panel, ubiquitin substrate cleavage assay (whole panel); format: biochemical, human; settings: at concentrations up to 150 μM
Protocol: as §1, with “S1). […]” for “S1).”

[2] = test system: reactive cysteine sites in HeLa cells expressing GFP or GFP-OTUB2; test: SLC-ABPP profiling of LN5P45-reactive cysteines with DBIA probe; format: cell-based, Homo sapiens; settings: 10 μM for 4 h, 10,670 cysteine peptides detected
Protocol: Reduced disulfide bonds were alkylated using 20 mM iodoacetamide for 30 min in the dark at RT.

- IC50 (UCHL1): > 100 µM
- IC50 (USP16): > 100 µM
- IC50 (OTUD3): 56 µM
Compound: Cc1cccc([C@H]2C[C@@H]2C(=O)NNC(=O)CCl)c1 [Compound 8]
- Inhibition of most DUBs of the panel [1]: not inhibited
- Number of proteins not involved in ubiquitination with inhibited DBIA probe binding [2]: seven

Source: PMC10510154 (ACS Chemical Biology, 2023)
